# Laboratory results as given in patent US7842324B2 (Senomyx, Inc., priority 2005, dated 2010).
# Target: T1, hT1R2/hT1R3 sweet receptor expressed in HEK293 cell line (Homo sapiens, UniProt Q7RTX0+Q8TE23)
# T1 construct: expressed in transfected cells; host or cells: HEK293 derivative stably expressing Gα15 and hT1R2/hT1R3, clone S-9
# T1 sequence (Q8TE23 20-839): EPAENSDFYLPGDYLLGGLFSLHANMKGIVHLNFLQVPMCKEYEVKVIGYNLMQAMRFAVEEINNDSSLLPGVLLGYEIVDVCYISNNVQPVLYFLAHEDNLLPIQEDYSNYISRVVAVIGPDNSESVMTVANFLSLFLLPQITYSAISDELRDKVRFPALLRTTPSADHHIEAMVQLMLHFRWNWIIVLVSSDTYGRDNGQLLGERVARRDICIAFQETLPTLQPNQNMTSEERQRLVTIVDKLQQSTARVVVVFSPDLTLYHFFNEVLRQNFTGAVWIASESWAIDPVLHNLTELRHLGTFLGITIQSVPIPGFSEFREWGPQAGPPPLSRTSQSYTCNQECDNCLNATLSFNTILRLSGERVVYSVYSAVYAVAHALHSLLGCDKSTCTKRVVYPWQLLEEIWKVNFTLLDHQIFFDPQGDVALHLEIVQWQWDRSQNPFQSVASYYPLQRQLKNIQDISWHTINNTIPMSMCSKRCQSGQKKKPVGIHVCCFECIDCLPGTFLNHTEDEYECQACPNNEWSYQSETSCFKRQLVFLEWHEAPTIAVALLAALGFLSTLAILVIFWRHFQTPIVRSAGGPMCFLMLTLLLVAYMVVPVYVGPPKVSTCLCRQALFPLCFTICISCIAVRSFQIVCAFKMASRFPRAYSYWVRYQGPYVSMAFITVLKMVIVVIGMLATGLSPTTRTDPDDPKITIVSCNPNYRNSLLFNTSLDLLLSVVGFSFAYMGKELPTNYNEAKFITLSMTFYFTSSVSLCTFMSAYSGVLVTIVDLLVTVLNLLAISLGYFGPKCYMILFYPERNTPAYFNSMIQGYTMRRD
# T1 sequence (Q7RTX0 21-852): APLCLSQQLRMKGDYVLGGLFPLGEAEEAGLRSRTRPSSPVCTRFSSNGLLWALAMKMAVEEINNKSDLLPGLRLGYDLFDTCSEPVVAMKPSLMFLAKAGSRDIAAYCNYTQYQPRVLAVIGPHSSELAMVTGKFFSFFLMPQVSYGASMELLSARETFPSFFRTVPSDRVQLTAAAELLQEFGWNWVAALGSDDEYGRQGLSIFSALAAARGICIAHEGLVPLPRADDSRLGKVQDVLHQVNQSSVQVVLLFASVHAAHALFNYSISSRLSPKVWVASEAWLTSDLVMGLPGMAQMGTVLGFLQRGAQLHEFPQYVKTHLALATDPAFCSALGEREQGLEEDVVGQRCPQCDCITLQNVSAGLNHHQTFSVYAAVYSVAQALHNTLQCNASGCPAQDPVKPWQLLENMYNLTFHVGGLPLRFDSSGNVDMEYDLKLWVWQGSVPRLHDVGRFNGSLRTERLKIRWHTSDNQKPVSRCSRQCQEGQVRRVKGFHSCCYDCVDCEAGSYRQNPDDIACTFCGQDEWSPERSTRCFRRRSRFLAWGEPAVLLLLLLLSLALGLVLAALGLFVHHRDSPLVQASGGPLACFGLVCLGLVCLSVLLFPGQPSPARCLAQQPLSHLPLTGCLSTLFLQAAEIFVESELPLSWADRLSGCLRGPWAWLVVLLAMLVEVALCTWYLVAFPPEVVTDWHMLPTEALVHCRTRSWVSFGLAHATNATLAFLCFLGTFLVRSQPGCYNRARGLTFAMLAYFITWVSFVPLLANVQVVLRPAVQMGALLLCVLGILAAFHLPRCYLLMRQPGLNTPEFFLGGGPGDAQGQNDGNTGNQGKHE
# Experiment: In vitro hT1R2/hT1R3-HEK293 taste receptor activation assay (FLIPR)
# Type: cell-based
# Conditions: Table A; read-out: SWEET EC50
# Method: An HEK293 cell line derivative (Chandrashekar et al., Cell (2000) 100:703-711) that stably expresses Gα15 and hT1R2/hT1R3 (Li et al., Proc Natl Acad Sci USA (2002) 99:4692-4696), see also PCT Publication No. WO 03/001876 A2) was used to identify compounds with sweet taste enhancing properties.
# Compounds covered in this document were initially selected based on their activity on the hT1R2/hT1R3-HEK293-Gα15 cell line (Li et al. vide supra). Activity was determined using an automated fluorometric imaging assay on a FLIPR instrument ([…], Molecular Devices, Sunnyvale, Calif.) (designated FLIPR assay). Cells from one clone (designated S-9 cells) were seeded into 384-well plates (at approximately 50,000 cells per well) in a medium containing DMEM Low Glucose (Invitrogen, Carlsbad, Calif.), 10% dialyzed fetal bovine serum (Invitrogen, Carlsbad, Calif.), 100 Units/ml Penicillin G, and 100 μg/ml Streptomycin (Invitrogen, Carlsbad, Calif.) (Li et al. vide supra) see also PCT Publication No. WO 03/001876 A2). S-9 cells were grown for 24 hours at 37° C. S-9 cells were then loaded with the calcium dye Fluo-3AM (Molecular Probes, Eugene, Oreg.), 4 μM in a phosphate buffered saline (D-PBS) (Invitrogen, Carlsbad, Calif.), for 1 hour at room temperature. After replacement with 25 μl D-PBS, stimulation was performed in the FLIPR instrument and at room temperature by the addition of 25 μl D-PBS supplemented with different stimuli at concentrations corresponding to twice the desired final level. Receptor activity was quantified by determining the maximal fluorescence increases (using a 480 nm excitation and 535 nm emission) after normalization to basal fluorescence intensity measured before stimulation.
# For dose-responses analysis, stimuli were presented in duplicates at 10 different concentrations ranging from 60 nM to 30 μM. Activities were normalized to the response obtained with 400 mM D-fructose, a concentration that elicits maximum receptor response. EC50s were determined using a non-linear regression algorithm (using a Senomyx, Inc. software), where the Hill slope, bottom asymptotes and top asymptotes were allow to vary. Identical results were obtained when analyzing the dose-response data using commercially available software for non-linear regression analysis such as GraphPad PRISM (San Diego, Calif.).
row,EC50 [nM],SMILES
1,3520,CC(C(=O)NC1CC1)c1ccc(-c2ccccc2)c(F)c1 (stereo not shown) [Compound A1]
2,3190,COCC(C)NC(=O)C(C)(C)c1ccc(-c2ccccc2)c(F)c1 (stereo not shown) [Compound A4]
3,4260,CC(C)CNC(=O)C(C)c1ccc(-c2ccccc2)cc1 (stereo not shown) [Compound A5]
4,5580,COc1cccc(-c2ccc(C(C)C(=O)NCC(C)C)cc2)c1 (stereo not shown) [Compound A7]
5,7500,CC(C)CNC(=O)Cc1ccc(-c2ccccc2)c(F)c1 [Compound A8]
6,6600,COc1cccc(-c2ccc(C(C)(C)C(=O)NCC(C)C)cc2)c1OC [Compound A18]
7,1170,CC(=O)c1ccccc1-c1ccc(C(C)(C)C(=O)NCC(C)C)cc1 [Compound A24]
8,1230,CC(C)CNC(=O)C(C)(C)c1ccc(-c2cnc3ccccn23)cc1 [Compound A25]
9,2060,CC(C)(C(=O)N[C@@H](O)c1ccccc1)c1ccc(-c2cncc(C#N)c2)cc1 [Compound A28]
10,2910,CCCNC(=O)C(C)(C)c1ccc(-c2cncc(COC)c2)cc1 [Compound A29]
11,3050,COCc1cccc(-c2ccc(C(C)(C)C(=O)NCC(C)C)nc2)c1 [Compound A30]
12,5400,CC(C)CNC(=O)C(C)(C)c1ccc(-c2cscn2)cc1 [Compound A32]

# The next lines start with the compound.
row,SMILES,EC50 [nM]
1,CCC(C)NC(=O)[C@@H](C)c1ccc(-c2ccccc2)c(F)c1 (stereo partly shown) [Compound A2],2380
2,CC(C)CNC(=O)C(C)(C)c1ccc(-c2ccccc2)c(F)c1 [Compound A3],1710
3,CC(C)CNC(=O)C(C)c1ccc(-c2cccc(F)c2)cc1 (stereo not shown) [Compound A6],1800
4,CC(C)CNC(=O)C(C)(C)c1ccc(-c2ccncc2)cc1 [Compound A9],1660
5,CC(C)CNC(=O)C(C)(C)c1ccc(-c2ccc3[nH]ccc3c2)cc1 [Compound A10],3360
6,CC(C)CNC(=O)C(C)(C)c1ccc(-c2cncnc2)cc1 [Compound A11],2130
7,CCC(COC)NC(=O)C(C)c1ccc(-c2ccccc2)c(F)c1 (stereo not shown) [Compound A12],4500
8,CCc1ccccc1-c1ccc(C(C)(C)C(=O)NCC(C)C)cc1 [Compound A13],7000
9,CSc1ccccc1-c1ccc(C(C)(C)C(=O)NCC(C)C)cc1 [Compound A14],9000
10,COC(=O)c1ccccc1-c1ccc(C(C)(C)C(=O)NCC(C)C)cc1 [Compound A15],4000
11,CC(C)CNC(=O)C(C)(C)c1ccc(-c2cccc(C(C)C)c2)cc1 [Compound A16],6000
12,CCCOc1cccc(-c2ccc(C(C)(C)C(=O)NCC(C)C)cc2)c1 [Compound A17],5600
13,COc1ccc(-c2ccc(C(C)(C)C(=O)NCC(C)C)cc2)c(OC)c1 [Compound A19],7100
14,CC(NC(=O)C(C)(C)c1ccc(-c2cncc(C#N)c2)cc1)c1ccccc1 (stereo not shown) [Compound A20],710
15,CC(C)CCNC(=O)C(C)(C)c1ccc(-c2cncc(C#N)c2)cc1 [Compound A21],940
16,CC(C)NC(=O)C(C)(C)c1ccc(-c2cncc(C#N)c2)cc1 [Compound A22],940
17,COCOCc1c(C=O)cccc1-c1ccc(C(C)(C)C(=O)NCC(C)C)cc1 [Compound A23],1100
18,CC(C)CNC(=O)C(C)(C)c1ccc(-c2cccc3[nH]ccc23)cc1 [Compound A26],2020
19,CC(C)(C(=O)NC[C@@H]1CCCO1)c1ccc(-c2cncc(C#N)c2)cc1 [Compound A27],2060
20,COCc1cccc(-c2ccc(C(C)(C)C(=O)NCC(C)C)cn2)c1 [Compound A31],3790

# Same assay, conditions: read-out: EC50 for activation of a hT1R2/hT1R3 sweet receptor expressed in HEK293 cell line
row,EC50 [nM],SMILES
1,10600,"CC(C)CNC(=O)C(C)(C)c1ccc(-c2cncc(C#N)c2)cn1 [Compound 42, 2-(5′-cyano-3,3′-bipyridin-6-yl)-N-isobutyl-2-methylpropanamide]"
2,650,"CC(C)[C@@H](C)NC(=O)C(C)(C)c1ccc(-c2cncnc2)cc1 [Compound 44, (R)-2-methyl-N-(3-methylbutan-2-yl)-2-(4-(pyrimidin-5-yl)phenyl)propanamide]"
3,1190,"CC(C)(C(=O)NCC(O)c1ccco1)c1ccc(-c2cncc(C#N)c2)cc1 (stereo not shown) [Compound 46, 2-(4-(5-cyanopyridin-3-yl)phenyl)-N-(2-(furan-2-yl)-2-hydroxyethyl)-2-methylpropanamide]"
4,190,"CC(NC(=O)C(C)(C)c1ccc(-c2cncc(C#N)n2)cc1)c1ccco1 (stereo not shown) [Compound 48, 2-(4-(6-cyanopyrazin-2-yl)phenyl)-N-(1-(furan-2-yl)ethyl)-2-methylpropanamide]"
5,470,"CC(C)(C(=O)NCc1ccco1)c1ccc(-c2cncc(C#N)n2)cc1 [Compound 49, 2-(4-(6-cyanopyrazin-2-yl)phenyl)-N-(furan-2-ylmethyl)-2-methylpropanamide]"
6,1030,"CC[C@@H](CO)NC(=O)C(C)(C)c1ccc(-c2cncc(C#N)n2)cc1 [Compound 51, (S)-2-(4-(6-cyanopyrazin-2-yl)phenyl)-N-(1-hydroxybutan-2-yl)-2-methylpropanamide]"

# More lines, now with the values behind:
row,SMILES,EC50 [nM]
1,"CC(C)CNC(=O)C(C)(C)c1nc(-c2ccccc2)no1 [Compound 41, N-isobutyl-2-methyl-2-(3-phenyl-1,2,4-oxadiazol-5-yl)propanamide]",6530
2,"COC(C)CNC(=O)C(C)(C)c1ccc(-c2cncc(C#N)n2)cc1 (stereo not shown) [Compound 45, 2-(4-(6-cyanopyrazin-2-yl)phenyl)-N-(2-methoxypropyl)-2-methylpropanamide]",920
3,"CC[C@@H](C)NC(=O)C(C)(C)c1ccc(-c2cncc(C#N)n2)cc1 [Compound 47, (R)-N-sec-butyl-2-(4-(6-cyanopyrazin-2-yl)phenyl)-2-methylpropanamide]",140
4,"Cc1cc(C(C)(C)C(=O)NCC(C)C)ccc1-c1ccccc1 [Compound 50, N-isobutyl-2-methyl-2-(2-methylbiphenyl-4-yl)propanamide]",1420
5,"CCC(CC)NC(=O)C(C)(C)c1ccc(-c2cncnc2)cc1 [Compound 52, 2-methyl-N-(pentan-3-yl)-2-(4-(pyrimidin-5-yl)phenyl)propanamide]",380
